Type in all cases: cell-based
One experiment has as its system Fusarium culmorum. Kind of experiment: Fusarium culmorum (foot rot of cereals) in vitro test, radial growth on Potato Dextrose Agar. As to conditions: Fusarium culmorum, 168 h, read-out: % control compared to the untreated check (radial growth).
The next experiment concerns Botrytis cinerea. Kind of experiment: Botrytis cinerea (gray mold) in vitro test, radial growth on Potato Dextrose Agar. As to conditions: 168 h, 300 ppm, seven days, 22° C., read-out: % (control) compared to the untreated check (radial growth).
For another experiment, the system named is Pyricularia oryzae. Kind of experiment: microbe, parasite or virus in culture. As to conditions: 168 h, read-out: % control compared to the untreated check (radial growth).
For another experiment, the system named is Colletotrichum capsici. Kind of experiment: Colletotrichum capsici (anthracnose) in vitro test, radial growth on Potato Dextrose Agar. As to conditions: Colletotrichum truncatum, 168 h; 300 ppm; seven days, 25° C.; read-out: % control compared to the untreated check (radial growth).
The next experiment deals with Rhizoctonia solani. Kind of experiment: Rhizoctonia solani (rice sheath blight/potato black scurf) in vitro test, radial growth on Potato Dextrose Agar. As to conditions: 168 h, 300 ppm, seven days, 25° C., read-out: % control compared to the untreated check (radial growth).
A further experiment has as its system Septoria lycopersici. The experiment can be described thus: Septoria lycopersici (leaf spot of tomato) in vitro test, radial growth on Potato Dextrose Agar. As to conditions: 168 h, seven days, 25° C., read-out: % control compared to the untreated check (radial growth).
For a further experiment, the system named is Alternaria solani. The experiment can be described thus: Alternaria solani (early blight of tomato/potato) in vitro test, radial growth on Potato Dextrose Agar. As to conditions: 168 h, 300 ppm, seven days, 25° C., read-out: % control compared to the untreated check (radial growth).

The source of these data is patent US11155517B2, “4-substituted phenylamine derivatives and their use to protect crops by fighting undesired phytopathogenic micoorganisms” (PI INDUSTRIES LTD., priority 2016, dated 2021).

The structures appear in SMILES notation.

Turning to `CCN(C)C=Nc1cc(C(F)(F)F)c(Cc2ccccc2Cl)cc1C1CC1` [Compound 262, N′-(4-(2-chlorobenzyl)-2-cyclopropyl-5-(trifluoromethyl)phenyl)-N-ethyl-N-methylformimidamide], the inhibition of growth at 300 ppm with Fusarium culmorum is 75%; in the experiment on Botrytis cinerea, greater than 80%; with Pyricularia oryzae, greater than 75%; with Colletotrichum capsici it was greater than 80%; in the experiment on Rhizoctonia solani, greater than 80%; with Septoria lycopersici it was greater than 70%. The inhibition of growth at 300 ppm in the experiment with Alternaria solani is greater than 75%.
Take `CCN(C)C=Nc1cc(C)c(Cc2cccc(F)c2)cc1C1CC1` [Compound 197, N′-(2-cyclopropyl-4-(3-fluorobenzyl)-5-methylphenyl)-N-ethyl-N-methylformimidamide]: the inhibition of growth at 300 ppm in the experiment with Fusarium culmorum is 75%; in the experiment with Botrytis cinerea, greater than 80%; with Pyricularia oryzae, greater than 75%; in the experiment on Colletotrichum capsici it was greater than 80%; in the experiment with Rhizoctonia solani it was greater than 80%; in the experiment on Septoria lycopersici it was greater than 70%. For the same compound, in the experiment on Alternaria solani, the inhibition of growth at 300 ppm was greater than 75%.
As to `CCN(C)C=Nc1cc(C)c(Cc2cccc(OC(F)(F)F)c2)cc1F` [Compound 206, N-ethyl-N′-(2-fluoro-5-methyl-4-(3-(trifluoromethoxy)benzyl)phenyl)-N-methylformimidamide], the inhibition of growth at 300 ppm is 75% in the experiment with Fusarium culmorum; greater than 80% in the experiment on Botrytis cinerea; greater than 75% with Pyricularia oryzae; greater than 80% with Colletotrichum capsici; greater than 80% in the experiment with Rhizoctonia solani; greater than 70% with Septoria lycopersici. Besides, the inhibition of growth at 300 ppm with Alternaria solani is greater than 75%.
For the compound `CCN(C)C=Nc1cc(C)c(Cc2ccc(OC)cc2)cc1C` [Compound 54, N-ethyl-N′-(4-(4-methoxybenzyl)-2,5-dimethylphenyl)-N-methylformimidamide], the inhibition of growth at 300 ppm was 75% with Fusarium culmorum; greater than 80% in the experiment with Botrytis cinerea; greater than 75% in the experiment on Pyricularia oryzae; greater than 80% with Colletotrichum capsici; greater than 80% in the experiment on Rhizoctonia solani; greater than 70% in the experiment with Septoria lycopersici. The inhibition of growth at 300 ppm with Alternaria solani was greater than 75%.
`CCN(C)C=Nc1cc(C)c(Cc2cccc(F)c2)cc1F` [Compound 209, N-ethyl-N′-(2-fluoro-4-(3-fluorobenzyl)-5-methylphenyl)-N-methylformimidamide]: the inhibition of growth at 300 ppm in the experiment with Fusarium culmorum is 75%; with Botrytis cinerea, greater than 80%; in the experiment with Pyricularia oryzae it was greater than 75%; in the experiment on Colletotrichum capsici, greater than 80%; in the experiment with Rhizoctonia solani it was greater than 80%; with Septoria lycopersici, greater than 70%. In addition, the inhibition of growth at 300 ppm in the experiment with Alternaria solani was greater than 75%.
On to `CCN(C)C=Nc1cc(C)c(Cc2ccc(F)c(F)c2)cc1Cl` [Compound 138, N′-(2-chloro-4-(3,4-difluorobenzyl)-5-methylphenyl)-N-ethyl-N-methylformimidamide], for which the inhibition of growth at 300 ppm with Fusarium culmorum is 75%; in the experiment on Botrytis cinerea, greater than 80%; with Pyricularia oryzae it was greater than 75%; in the experiment on Colletotrichum capsici, greater than 80%; with Rhizoctonia solani it was greater than 80%; in the experiment on Septoria lycopersici it was greater than 70%. Also, the inhibition of growth at 300 ppm in the experiment on Alternaria solani was greater than 75%.
For `CCN(C)C=Nc1cc(C)c(Cc2cc(F)ccc2Cl)cc1C` [Compound 143, N′-(4-(2-chloro-5-fluorobenzyl)-2,5-dimethylphenyl)-N-ethyl-N-methylformimidamide], the inhibition of growth at 300 ppm was 75% in the experiment on Fusarium culmorum; greater than 80% with Botrytis cinerea; greater than 75% in the experiment with Pyricularia oryzae; greater than 80% in the experiment on Colletotrichum capsici; greater than 80% in the experiment with Rhizoctonia solani; greater than 70% in the experiment with Septoria lycopersici. Also, in the experiment on Alternaria solani, the inhibition of growth at 300 ppm is greater than 75%.
With `CCN(C)C=Nc1cc(C)c(Cc2ccccc2Cl)cc1C1CC1` [Compound 223, N′-(4-(2-chlorobenzyl)-2-cyclopropyl-5-methylphenyl)-N-ethyl-N-methylformimidamide], the inhibition of growth at 300 ppm is 75% in the experiment with Fusarium culmorum; greater than 80% in the experiment on Botrytis cinerea; greater than 75% with Pyricularia oryzae; greater than 80% in the experiment with Colletotrichum capsici; greater than 80% in the experiment on Rhizoctonia solani; greater than 70% with Septoria lycopersici. The inhibition of growth at 300 ppm in the experiment with Alternaria solani was greater than 75%.
Regarding `CCN(C)C=Nc1cc(C)c(Cc2ccc(C)c(F)c2)cc1Cl` [Compound 139, N′-(2-chloro-4-(3-fluoro-4-methylbenzyl)-5-methylphenyl)-N-ethyl-N-methylformimidamide], the inhibition of growth at 300 ppm is 75% in the experiment on Fusarium culmorum; greater than 80% in the experiment with Botrytis cinerea; greater than 75% in the experiment with Pyricularia oryzae; greater than 80% in the experiment with Colletotrichum capsici; greater than 80% with Rhizoctonia solani; greater than 70% in the experiment on Septoria lycopersici. Also, the inhibition of growth at 300 ppm with Alternaria solani was greater than 75%.
Regarding `CCN(C)C=Nc1cc(C)c(Cc2cc(C)cc(F)c2)cc1C` [Compound 200, N-ethyl-N′-(4-(3-fluoro-5-methylbenzyl)-2,5-dimethylphenyl)-N-methylformimidamide], the inhibition of growth at 300 ppm in the experiment with Fusarium culmorum is 75%; in the experiment on Botrytis cinerea, greater than 80%; in the experiment on Pyricularia oryzae, greater than 75%; in the experiment with Colletotrichum capsici it was greater than 80%; with Rhizoctonia solani it was greater than 80%; in the experiment on Septoria lycopersici, greater than 70%. For the same compound, the inhibition of growth at 300 ppm in the experiment on Alternaria solani was greater than 75%.
As for `CCN(C)C=Nc1cc(C)c(Cc2ccccc2C)cc1F` [Compound 212, N-ethyl-N′-(2-fluoro-5-methyl-4-(2-methylbenzyl)phenyl)-N-methylformimidamide], the inhibition of growth at 300 ppm in the experiment on Fusarium culmorum is 75%; in the experiment with Botrytis cinerea, greater than 80%; with Pyricularia oryzae, greater than 75%; in the experiment on Colletotrichum capsici it was greater than 80%; with Rhizoctonia solani, greater than 80%; with Septoria lycopersici, greater than 70%. In addition, the inhibition of growth at 300 ppm in the experiment on Alternaria solani is greater than 75%.
On to `CCN(C)C=Nc1cc(C)c(Cc2cc(C(F)(F)F)ccc2Cl)cc1C` [Compound 159, N′-(4-(2-chloro-5-(trifluoromethyl)benzyl)-2,5-dimethylphenyl)-N-ethyl-N-methylformimidamide], for which the inhibition of growth at 300 ppm in the experiment with Fusarium culmorum was 75%; with Botrytis cinerea it was greater than 80%; in the experiment on Pyricularia oryzae it was greater than 75%; in the experiment on Colletotrichum capsici, greater than 80%; in the experiment on Rhizoctonia solani it was greater than 80%; in the experiment on Septoria lycopersici, greater than 70%. For the same compound, in the experiment on Alternaria solani, the inhibition of growth at 300 ppm was greater than 75%.
For the compound `CCN(C)C=Nc1cc(C)c(Cc2ccccc2OC(F)(F)F)cc1F` [Compound 207, N-ethyl-N′-(2-fluoro-5-methyl-4-(2-(trifluoromethoxy)benzyl)phenyl)-N-methylformimidamide], the inhibition of growth at 300 ppm in the experiment on Fusarium culmorum was 75%; in the experiment with Botrytis cinerea, greater than 80%; in the experiment with Pyricularia oryzae, greater than 75%; with Colletotrichum capsici, greater than 80%; in the experiment with Rhizoctonia solani it was greater than 80%; in the experiment with Septoria lycopersici, greater than 70%. Moreover, the inhibition of growth at 300 ppm with Alternaria solani was greater than 75%.
Regarding `CCN(C)C=Nc1cc(C)c(Cc2cc(F)ccc2C)cc1Cl` [Compound 165, N′-(2-chloro-4-(5-fluoro-2-methylbenzyl)-5-methylphenyl)-N-ethyl-N-methylformimidamide], the inhibition of growth at 300 ppm was 75% in the experiment on Fusarium culmorum; greater than 80% in the experiment on Botrytis cinerea; greater than 75% in the experiment on Pyricularia oryzae; greater than 80% with Colletotrichum capsici; greater than 80% with Rhizoctonia solani; greater than 70% with Septoria lycopersici. In the experiment on Alternaria solani, the inhibition of growth at 300 ppm is greater than 75%.
As for `CCN(C)C=Nc1cc(C)c(Cc2c(F)cccc2C(F)(F)F)cc1Cl` [Compound 220, N′-(2-chloro-4-(2-fluoro-6-(trifluoromethyl)benzyl)-5-methylphenyl)-N-ethyl-N-methylformimidamide], the inhibition of growth at 300 ppm was 75% with Fusarium culmorum; greater than 80% with Botrytis cinerea; greater than 75% with Pyricularia oryzae; greater than 80% with Colletotrichum capsici; greater than 80% with Rhizoctonia solani; greater than 70% in the experiment with Septoria lycopersici. For the same compound, the inhibition of growth at 300 ppm in the experiment with Alternaria solani is greater than 75%.
In the case of `CCN(C)C=Nc1cc(C)c(Cc2ccc(Cl)c(C(F)(F)F)c2)cc1C` [Compound 142, N′-(4-(4-chloro-3-(trifluoromethyl)benzyl)-2,5-dimethylphenyl)-N-ethyl-N-methylformimidamide], the inhibition of growth at 300 ppm in the experiment on Fusarium culmorum was 75%; with Botrytis cinerea, greater than 80%; in the experiment on Pyricularia oryzae, greater than 75%; in the experiment with Colletotrichum capsici it was greater than 80%; with Rhizoctonia solani, greater than 80%; in the experiment on Septoria lycopersici, greater than 70%. For the same compound, in the experiment on Alternaria solani, the inhibition of growth at 300 ppm is greater than 75%.
Consider `CCN(C)C=Nc1cc(C)c(Cc2cc(F)cc(OC)c2)cc1Cl` [Compound 169, N′-(2-chloro-4-(3-fluoro-5-methoxybenzyl)-5-methylphenyl)-N-ethyl-N-methylformimidamide], for which the inhibition of growth at 300 ppm in the experiment with Fusarium culmorum is 75%; with Botrytis cinerea it was greater than 80%; with Pyricularia oryzae, greater than 75%; in the experiment with Colletotrichum capsici it was greater than 80%; with Rhizoctonia solani, greater than 80%; in the experiment on Septoria lycopersici it was greater than 70%. Also, the inhibition of growth at 300 ppm in the experiment with Alternaria solani was greater than 75%.
